Target: T1, ATP-dependent MurE ligase (Mycobacterium tuberculosis, UniProt P9WJL3)
T1 sequence (P9WJL3 1-535): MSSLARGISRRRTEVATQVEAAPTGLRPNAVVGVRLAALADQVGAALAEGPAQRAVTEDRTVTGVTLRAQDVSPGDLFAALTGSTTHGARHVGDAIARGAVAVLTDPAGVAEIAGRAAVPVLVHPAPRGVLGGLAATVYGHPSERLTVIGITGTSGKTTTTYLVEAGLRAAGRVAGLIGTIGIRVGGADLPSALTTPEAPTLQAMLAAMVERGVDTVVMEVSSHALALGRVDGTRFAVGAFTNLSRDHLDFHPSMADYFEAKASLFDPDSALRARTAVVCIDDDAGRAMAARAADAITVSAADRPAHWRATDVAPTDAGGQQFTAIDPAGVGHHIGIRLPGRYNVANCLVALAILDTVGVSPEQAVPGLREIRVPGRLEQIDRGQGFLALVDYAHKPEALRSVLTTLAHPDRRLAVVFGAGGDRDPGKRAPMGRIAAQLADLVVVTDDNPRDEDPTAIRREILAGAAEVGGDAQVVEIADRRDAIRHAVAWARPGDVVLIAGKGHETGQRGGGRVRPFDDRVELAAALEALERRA
Assay: biochemical

Structure (SMILES): C=CC(C)(C)c1c(OC)oc(-c2ccccc2)cc1=O [compound 2, hyperenone A]
- IC50: 320 µM

From article PMC3657136, “An antibacterial from Hypericum acmosepalum inhibits ATP-dependent MurE ligase from Mycobacterium tuberculosis” (International Journal of Antimicrobial Agents, 2012)
